Data from patent publication US8697841B2, “Peptide for transmigration across blood brain barrier and delivery systems comprising the same” (Industrial Technology Research Institute, priority 2009, dated 2014).

Assay: Hot plate test (PD study)
Type: in vivo, mice
Details: 7.5 mg/kg EM-1, intravenous injection
Protocol: Hot-plate test was used to evaluate thermal pain reflexes due to footpad contact with a heated surface. The response of the animals to the hot plate reflects a nociceptive behavior, which involves complex circuit integration in the central nervous system.
Briefly, the mice were individually placed on a […] hot plate apparatus and the time until onset of licking the hindlimb was measured. Basal latency was approximate 2 sec, and cut-off time in the absence of a response (T2) was set at 45 sec. The inhibition of the hindlimb-licking responses were expressed as percent maximal possible effect (% MPE) which was calculated as [(T1−T0)/(T2−T0)]×100, where T0 and T1 were the hot-plate latencies before and after intravenous injection of the EM-1 formulations. The hot-plate latency was determined 10, 20, 30, 60, 120, 180 and 210 min after the formulation injection (7.5 mg/kg EM-1), and the AUC (the area under a curve) values for MPE % versus time (min) plots were calculated.

For endomorphin-1 [EM-1], the “analgesic effect (nociceptive responses) in hot-plate test” value was “did not reduce the nociceptive responses”.
